US11591353B2 (Mindset Pharma Inc., priority 2020, dated 2023)

Key:
human 5-HT2A receptor = human 5-HT2A receptor (Homo sapiens (Human), UniProt P28223); assay: Radioligand binding assay on human 5-HT2A receptor ([3H]-ketanserin)
Method: i. Prepare the assay buffer following the table below;
ii. Preparation of 8 doses of reference and test compounds starting from 10 mM stock solution as requested by 5-fold serial dilutions with 100%;
iii. […] a. Add 50 μl/well of 0.5% (v/v) PEI to UniFilter-96 GF/B plates. Seal the plates and incubate at 4° C. for 3 hrs; b. After incubation, wash the plates 3 times with ice-cold wash buffer (50 mM Tris, pH7.4);
iv. Preparation of assay plates: a. Dilute cell membrane with assay buffer and add 330 μl/well to 96 round deep well plates to reach a concentration of 20 μg/well; b. […] Dilute [3H]-ketanserin with assay buffer to 5 nM (5× final concentration) and add 110 μl/well to 96 round deep well plates.
v. Centrifuge the plate at 1000 rpm for 30 secs and then agitate at 600 rpm, R.T. for 5 min.
vii. Stop the incubation by vacuum filtration onto GF/B filter plates followed by 4 times washing with ice-cold wash buffer (50 mM Tris, pH7.4).
ix. […]
For reference and exemplary test compounds of the application, the results are expressed as % Inhibition, using the normalization equation: N=100−100×(U−C2)/(C1−C2), where U is the unknown value, C1 is the average of high controls, and C2 is the average of low controls. The IC50 is determined by fitting percentage of inhibition as a function of compound concentrations with Hill equation using XLfit.

male C57 BL6 mice = assay: Mouse head-twitch response (HTR); assay type: in vivo; settings: head twitches over a 1 h period, FIG. 1 and FIG. 2
Method: FIG. 1 is a graph showing the effect of various doses of exemplary compound of Formula I, I-28, on head-twitch response (HTR) in male C57 BL6 mice. The mice were treated with compound I-28 ([…]) by PO route (N=6 mice/dose), and the total number of head twitches were recorded over a 1 h period. Data is expressed as mean±SEM. The induction of head twitches elicited by 5-HT2A receptor agonists is believed to represent a behavioural proxy of their psychedelic effects.
The mice were treated with compound MSP-1007 (0.03-10 mg/kg) by SC route (N=6 mice/dose), and the total number of head twitches were recorded over a 1 h period. Data is expressed as mean±SEM. […]
The effect of different doses of exemplary compound I-28 of Formula I and its active metabolite were evaluated on head-twitch response (HTR) as a behavior-based model of psychedelic activity.
Male, C57 BL/6 J mice (body weight range 20-30 g) were dosed with the appropriate dose of test article, and following a 1-minute pre-treatment time, placed in individual observation chambers. Animals were visually assessed for the incidence head twitches continuously over a 1 hr period. […] Each head twitch was individually counted by a trained observer, and the data expressed as the mean±SEM of 6-10 mice per group. […]

SMILES	IC50 (human 5-HT2A receptor) [nM]	efficacy to induce head twitch (in words) (male C57 BL6 mice)
[2H]C([2H])([2H])N(C([2H])([2H])[2H])C([2H])([2H])C([2H])([2H])c1c[nH]c2cccc(OC(=O)CCCCCCC/C=C\C/C=C\CCCCC)c12 [Compound I-28, 3-(2-(bis(methyl-d3)amino)ethyl-1,1,2,2-d4)-1H-indol-4-yl (9Z,12Z)-octadeca-9,12-dienoate]	516	
[2H]C([2H])([2H])N(C([2H])([2H])[2H])C([2H])([2H])C([2H])([2H])c1c[nH]c2cccc(O)c12 [Compound I-45, 3-(2-(bis(methyl-d3)amino)ethyl-1,1,2,2-d4)-1H-indol-4-ol]		greater efficacy to induce head twitch than the exemplary prodrug I-28
